# Source: patent US20140187548A1, “6 SUBSTITUTED IMIDAZOPYRAZINES FOR USE AS MPS-1 AND TKK INHIBITORS IN THE TREATMENT OF HYPERPROLIFERATIVE DISORDERS” (BAYER INTELLECTUAL PROPERTY GMBH, priority 2010, published 2014)
# Molecular target: T1, human kinase Mps-1 (Homo sapiens, UniProt P33981)
# T1 construct: N-terminally GST-tagged human full length recombinant Mps-1 kinase; GST (N); purchased Invitrogen, Karslruhe, Germany PV4071
# T1 sequence (P33981 1-857): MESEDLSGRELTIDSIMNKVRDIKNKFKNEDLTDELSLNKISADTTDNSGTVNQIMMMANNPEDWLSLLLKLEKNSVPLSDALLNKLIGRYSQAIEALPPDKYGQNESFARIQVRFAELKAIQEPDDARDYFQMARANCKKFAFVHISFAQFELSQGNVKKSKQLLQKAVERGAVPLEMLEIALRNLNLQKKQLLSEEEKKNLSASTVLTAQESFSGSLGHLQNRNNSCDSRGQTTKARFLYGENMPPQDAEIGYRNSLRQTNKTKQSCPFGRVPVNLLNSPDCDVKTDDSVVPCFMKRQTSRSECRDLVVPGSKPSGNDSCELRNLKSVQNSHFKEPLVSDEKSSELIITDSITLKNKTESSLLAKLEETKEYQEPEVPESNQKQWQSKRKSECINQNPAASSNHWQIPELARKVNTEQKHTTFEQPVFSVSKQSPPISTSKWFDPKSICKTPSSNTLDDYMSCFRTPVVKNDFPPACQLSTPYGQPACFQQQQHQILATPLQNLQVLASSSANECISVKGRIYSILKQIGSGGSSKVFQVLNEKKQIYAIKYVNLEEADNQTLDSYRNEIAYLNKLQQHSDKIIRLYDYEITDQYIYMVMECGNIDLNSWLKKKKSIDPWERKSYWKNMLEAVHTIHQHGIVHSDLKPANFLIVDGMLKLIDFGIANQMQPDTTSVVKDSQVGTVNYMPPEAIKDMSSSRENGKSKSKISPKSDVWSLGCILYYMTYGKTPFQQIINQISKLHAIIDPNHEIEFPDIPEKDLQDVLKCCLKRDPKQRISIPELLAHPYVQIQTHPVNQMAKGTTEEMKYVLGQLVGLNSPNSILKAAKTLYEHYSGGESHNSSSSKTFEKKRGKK
# Assay: Mps-1 kinase assay (TR-FRET)
# Assay type: biochemical
# Conditions: N-terminally GST-tagged human full length recombinant Mps-1; 10 μM ATP; 1 μM peptide substrate; 15 min pre-incubation; 60 min at 22° C.
# Summary of the method: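 N-terminally GST-tagged full-length recombinant human Mps-1, about 1 nM final, phosphorylates a biotinylated peptide. Product detected by TR-FRET from Eu-anti-phospho-Ser/Thr antibody to streptavidin-XLent after 1 h at 22° C.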
row,IC50 [nM],Structure (SMILES)
1,4.6,"CC(C)CNc1nc(-c2cccc(C#N)c2)cn2c(-c3ccc(C(=O)NC4CC4)cc3)cnc12 [Example 1-72, 4-{6-(3-cyanophenyl)-8-[(2-methylpropyl)amino]imidazo[1,2-a]pyrazin-3-yl}-N-cyclo-propylbenzamide]"
2,4.4,"O=C(NC1CC1)c1ccc(-c2cnc3c(NC[C@H](O)CO)nc(-c4ccccc4)cn23)cc1 [Example 2-82, N-cyclopropyl-4-(8-{[(2S)-2,3-dihydroxypropyl]amino}-6-phenylimidazo[1,2-a]pyrazin-3-yl)benzamide]"
3,8.5,"CC(C)CNc1nc(-c2ccccc2O)cn2c(-c3ccc(C(=O)NC4CC4)cc3)cnc12 [Example 1-65, N-cyclopropyl-4-{6-(2-hydroxyphenyl)-8-[(2-methylpropyl)amino]imidazo[1,2-a]pyrazin-3-yl}benzamide]"
4,28.4,"O=C(NC1CC1)c1ccc(-c2cnc3c(NCCCN4CCCC4)nc(-c4ccccc4)cn23)cc1 [Example 2-36, N-cyclopropyl-4-(6-phenyl-8-{[3-(pyrrolidin-1-yl)propyl]amino}imidazo[1,2-a]pyrazin-3-yl)benzamide]"
5,1.1,"O=C(NC1CC1)c1ccc(-c2cnc3c(NCCCF)nc(-c4ccccc4)cn23)cc1 [Example 2-62, N-cyclopropyl-4-{8-[(3-fluoropropyl)amino]-6-phenylimidazo[1,2-a]pyrazin-3-yl}benzamide]"
6,2.7,"O=C(NC1CC1)c1ccc(-c2cnc3c(NCc4cc[nH]n4)nc(-c4ccccc4)cn23)cc1 [Example 2-55, N-cyclopropyl-4-{6-phenyl-8-[(1H-pyrazol-3-ylmethyl)amino]imidazo[1,2-a]pyrazin-3-yl} benzamide]"
7,18,"CC(C)CNc1nc(-c2ccc(F)cc2)cn2c(-c3ccc(C(=O)NC4CC4)c(Cl)c3)cnc12 [Example 1-93, 2-chloro-N-cyclopropyl-4-{6-(4-fluorophenyl)-8-[(2-methylpropyl)amino]imidazo[1,2-a]pyrazin-3-yl}benzamide]"
8,2.5,"O=C(NC1CC1)c1ccc(-c2cnc3c(NCc4cccs4)nc(-c4ccccc4)cn23)cc1 [Example 2-77, N-cyclopropyl-4-{6-phenyl-8-[(2-thienylmethyl)amino]imidazo[1,2-a]pyrazin-3-yl}benzamide]"
9,2.5,"O=C(NC1CC1)c1ccc(-c2cnc3c(NCC4CCCC4)nc(-c4ccccc4)cn23)cc1 [Example 2-72, 4-{8-[(Cyclopentylmethyl)amino]-6-phenylimidazo[1,2-a]pyrazin-3-yl}-N-cyclopropylbenzamide]"
10,4.1,"O=C(NC1CC1)c1ccc(-c2cnc3c(NCCCn4ccnc4)nc(-c4ccccc4)cn23)cc1 [Example 2-71, N-cyclopropyl-4-(8-{[3-(1H-imidazol-1-yl)propyl]amino}-6-phenylimidazo[1,2-a]pyrazin-3-yl)benzamide]"
11,9.8,"O=C(NC1CC1)c1ccc(-c2cnc3c(NCCOc4ccccc4)nc(-c4ccccc4)cn23)cc1 [Example 2-40, N-cyclopropyl-4-{8-[(2-phenoxyethyl)amino]-6-phenylimidazo[1,2-a]pyrazin-3-yl}benzamide]"
12,56.2,"O=C(NC1CC1)c1ccc(-c2cnc3c(NCC4CCCO4)nc(-c4ccccc4CO)cn23)cc1Cl (centres unmarked) [Example 1-106, 2-chloro-N-cyclopropyl-4-{6-[2-(hydroxymethyl)phenyl]-8-[(tetrahydro-furan-2-ylmethyl)amino]imidazo[1,2-a]pyrazin-3-yl}benzamide]"
13,2.6,"O=C(NC1CC1)c1ccc(-c2cnc3c(NCCC(F)(F)F)nc(-c4ccc(F)cc4)cn23)cc1F [Example 1-112, N-cyclopropyl-2-fluoro-4-{6-(4-fluorophenyl)-8-[(3,3,3-trifluoropropyl)amino]imidazo[1,2-a]pyrazin-3-yl}benzamide]"
14,5.7,"Cc1ccc(-c2cn3c(-c4ccc(C(=O)NC5CC5)cc4)cnc3c(NCC(C)C)n2)cc1 [Example 1-7, N-cyclopropyl-4-{6-(4-methylphenyl)-8-[(2-methylpropyl)amino]imidazo[1,2-a]pyrazin-3-yl}benzamide]"
15,19.4,"O=C(NC1CC1)c1ccc(-c2cnc3c(NCCc4cccs4)nc(-c4ccccc4)cn23)cc1 [Example 2-39, N-cyclopropyl-4-(6-phenyl-8-{[2-(thiophen-2-yl)ethyl]amino}imidazo[1,2-a]pyrazin-3-yl)benzamide]"
16,2.3,"CC(C)CNc1nc(-c2ccc(F)cc2)cn2c(-c3ccc(C(=O)NC4CC4)cc3)cnc12 [Example 1-6, N-cyclopropyl-4-{6-(4-fluorophenyl)-8-[(2-methylpropyl)amino]imidazo[1,2-a]pyrazin-3-yl}benzamide]"
17,2.3,"CC(=O)c1cccc(-c2cn3c(-c4ccc(C(=O)NC5CC5)cc4)cnc3c(NCC(C)C)n2)c1 [Example 1-46, 4-{6-(3-acetylphenyl)-8-[(2-methylpropyl)amino]imidazo[1,2-a]pyrazin-3-yl}-N-cyclo-propylbenzamide]"
18,35.9,"COc1ccc(Cl)cc1-c1cn2c(-c3ccc(C(=O)NC4CC4)cc3)cnc2c(NCC(C)C)n1 [Example 1-71, 4-{6-(5-chloro-2-methoxy-phenyl)-8-[(2-methyl-propyl)amino]imidazo [1,2-a]pyrazin-3-yl}-N-cyclopropylbenzamide]"
19,17.4,NCCCNc1nc(-c2ccccc2)cn2c(-c3ccc(C(=O)NC4CC4)cc3)cnc12 [Example 2-68]
20,11.9,"Cc1cn2c(-c3ccc(C(=O)NC4CC4)cc3)cnc2c(NCC(C)C)n1 [Example 1-88, N-cyclopropyl-4-{6-methyl-8-[(2-methyl-propyl)amino]imidazo [1,2-a]pyrazin-3-yl} benzamide]"
21,3.3,"Cc1cc(-c2cnc3c(NCC4CCOCC4)nc(-c4ccc(F)cc4)cn23)ccc1C(=O)NC1CC1 [Example 10-14, N-cyclopropyl-4-{6-(4-fluorophenyl)-8-[(tetra-hydro-2H-pyran-4-ylmethyl)amino]imidazo [1,2-a]pyrazin-3-yl}-2-methylbenzamide]"
22,31.5,"CC(C)(O)CNc1nc(-c2cc(F)c(F)c(F)c2)cn2c(-c3ccc(C(=O)NC4CC4)cc3)cnc12 [Example 1-134, N-cyclopropyl-4-{8-[(2-hydroxy-2-methyl-propyl)amino]-6-(3,4,5-trifluorophenyl)imidazo[1,2-a]pyrazin-3-yl} benzamide]"
23,3.2,"CC(C)CCNc1nc(-c2ccccc2)cn2c(-c3ccc(C(=O)NC4CC4)cc3)cnc12 [Example 2-4, N-cyclopropyl-4-{8-[(3-methylbutyl)amino]-6-phenylimidazo[1,2-a]pyrazin-3-yl}benzamide]"
24,4.8,"O=C(NC1CC1)c1ccc(-c2cnc3c(NCCCN4CCCC4=O)nc(-c4ccccc4)cn23)cc1 [Example 2-9, N-cyclopropyl-4-(8-{[3-(2-oxopyrrolidin-1-yl)propyl]amino}-6-phenylimidazo[1,2-a]pyrazin-3-yl)benzamide]"
25,11.1,"Cn1nccc1CNc1nc(-c2ccccc2CO)cn2c(-c3ccc(C(=O)NC4CC4)c(F)c3)cnc12 [Example 1-121, N-cyclopropyl-2-fluoro-4-(6-[2-(hydroxymethyl)phenyl]-8-{[(1-methyl-1H-pyrazol-5-yl)methyl]amino}imidazo[1,2-a]pyrazin-3-yl)benzamide]"
26,1.1,"CC(C)(O)CNc1nc(-c2ccccc2)cn2c(-c3ccc(C(=O)NC4CC4)cc3)cnc12 [Example 1-125, N-cyclopropyl-4-{8-[(2-hydroxy-2-methylpropyl)amino]-6-phenylimidazo[1,2-a]pyrazin-3-yl}benzamide]"
